Test results as given in patent publication US11202795B2, “Means and methods for treatment of early-onset Parkinson's disease” (VIB VZW, priority 2014, dated 2021).
Entries after “also recorded” stand apart in the source; their conditions may differ.

Assays:
PINK1 mutant flies = test: Flight assay of PINK1 mutant flies fed with FAS inhibitor; assay type: in vivo, Drosophila melanogaster
Protocol: FASN is a 273 kDa protein that produces palmitate, which is a precursor of fatty acids in a seven-step enzymatic reaction. FASN uses malonyl CoA and acetyl CoA as substrates. Several inhibitors of FASN function exist. Tests were performed to determine whether defective flight in PINK1 mutants could be pharmacologically rescued.
One-day-old adult flies were placed on molasses medium supplemented with 100 μM Cerulenin (Enzo Life Sciences) or 3 μM Irgasan (Sigma) (2.5% final ethanol concentration) or supplemented with 2.5% ethanol for control medium. […] To determine mitochondrial morphology, embryos were placed on molasses medium supplemented with 100 μM Cerulenin (2.5% final ethanol concentration) or supplemented with 2.5% ethanol for control medium and grown to the third instar larval stage. These third instar larvae were dissected and used for experiments (see below).
The flight assay was conducted on male flies using batches of five flies each. The flies were placed in an empty vial and gently tapped.

PINK1−/− MEFs = test: ATP levels of PINK1−/− MEFs treated with FASN inhibitor; assay type: cell-based, mice; conditions: 10 μM Cerulenin vs untreated cells
Protocol: To directly test if further lowering FASN activity in PINK mutant cells rescues the mitochondrial dysfunction in these cells, ATP levels were tested.
(§1) Cells were treated with 10 μM Cerulenin (0.1% ethanol) or control medium supplemented with 0.1% ethanol.
(§2) ATP levels were determined as previously described (Morais et al. (2014) Science 344:203-207) using an ATP determination kit (Invitrogen) according to supplier's protocol. Luminescence was measured on a luminometer (Biorad) and values were normalized to total protein content (Bradford method).

[1] = tested on: fibroblasts from patients carrying mutations in PINK1 (L1703); test: ATP levels of fibroblasts from patients carrying PINK1 mutations; assay type: cell-based, human; conditions: patient fibroblasts with PINK1 mutations (L1703), 10 μM Cerulenin vs untreated cells
Protocol: To directly test if further lowering FASN activity in PINK mutant cells rescues the mitochondrial dysfunction in these cells, ATP levels were tested. […] Thus, the inhibition of FASN with an inhibitor rescues in flies and cells isolated from mice and patients the PINK1-induced mitochondrial defects.
as §1, §2

[2] = tested on: control cells (PINK1+/+ MEF and L2134 controls); test: ATP levels of control cells treated with FASN inhibitor; assay type: cell-based
Protocol: as §2, with “Cells were treated with 10 μM Cerulenin (0.1% ethanol) or control medium supplemented with 0.1% ethanol. ATP levels” for “ATP levels”

PINK−/− MEFs = test: Shotgun lipidomics of mitochondrial fractions (cardiolipin levels); assay type: cell-based, mice; conditions: compared to control MEFs
Source text: Nonetheless, when FASN activity was lowered further in PINK1^−/− mutants, either by genetic or by pharmacological inhibition, the palmitate levels drop further. […] Only unsaturated phosphatidylglycerol (PG) is a good substrate for CL synthase (Bobyleva et al. (1997) Biochem. Mol. Biol. Int. 41:469-480) and high levels of palmitate shift the balance toward more saturated PG (Ostrander et al. (2001) J. Biol. Chem. 276:38061-38067). Opposite to this, it was confirmed that inhibition of FASN results in more unsaturated PG, while wondering if FASN inhibition results in increased CL levels.
as §1
Mitochondria were isolated and resuspended in ammonium bicarbonate buffer. Lipids were extracted and analyzed using shotgun mass spectrometry (lipotype). In short, using Chloroform and Methanol, lipids were extracted via a two-step lipid extraction process. These extracted lipids were then immediately subjected to mass spectrometric analysis. Lipid data were acquired on a hybrid quadrupole/ORBITRAP® mass spectrometer (Q-Exactive, Thermo-Fisher) equipped with an automated nanoflow electrospray ion source (TRIVERSA NANOMATE® Advion) in both positive and negative ion mode. LIPOTYPE® XPLORER® was used to identify lipids on unprocessed mass spectra.

SMILES	flight ability (PINK1 mutant flies; PINK1 mutant flies (B9), concentrations between 1-10 μM irgasan in food)	flight ability (PINK1 mutant flies; PINK1 mutant flies on food with different concentrations of cerulenin, flight assay every 24 hours)	ATP levels (PINK1−/− MEFs)	ATP levels [1]	ATP levels [2]	cardiolipin (CL) levels (PINK−/− MEFs)
Oc1cc(Cl)ccc1Oc1ccc(Cl)cc1Cl [irgasan]	clearly enhance the flight ability					
C/C=C/C/C=C/CCC(=O)[C@H]1O[C@H]1C(N)=O [cerulenin]		increased flight ability; also recorded: a dose-response effect was observed	elevated ATP levels compared to untreated cells; also recorded: increased levels of ATP	elevated ATP levels compared to untreated cells; also recorded: increased levels of ATP	did not have an effect	almost completely restored the levels of all the CL species that were assessed back to control levels
